Assay results published in patent publication US6599883B1, “Nasal delivery of xylitol” (Nastech Pharmaceutical Company, Inc., priority 1998, dated 2003).

Experiments:
[1] = format: physicochemical
Procedure: A composition is prepared for a dilute bathing formulation of xylitol for nasal delivery. The concentration of xylitol in the solution may be 10%-60% by weight/volume. This corresponds to 10-60 grams of xylitol per 100 ml of solution. xylitol is soluble in solution up to 64.2 grams per 100 ml of solution.

Streptococcus pneumonia = conditions: during its logarithmic growth phase; cited from earlier work

**Q.** With OC[C@@H](O)[C@H](O)[C@@H](O)CO [xylitol] as the compound, how does the soluble in solution [1] read?
**A.** Its soluble in solution is “up to 64.2 grams per 100 ml of solution”.

**Q.** What about the “growth of Streptococcus pneumonia in vitro” value (Streptococcus pneumonia) of the same compound?
**A.** Its value is “inhibits the growth”.
